Like-named read-outs stand apart in the source and are kept apart here.
How the values were obtained:
[1] = molecular target: T1, human recombinant adrenergic α1D receptor (Homo sapiens, UniProt P25100); assay: Adrenergic α1D radioligand binding ([3H]Prozosin); conditions: read-out: Inhibition of ligand binding, Adrenergic α1D
T1 construct: expressed in transfected cells; host or cells: human embryonic kidney (HEK-293) cells
T1 sequence (P25100 1-572): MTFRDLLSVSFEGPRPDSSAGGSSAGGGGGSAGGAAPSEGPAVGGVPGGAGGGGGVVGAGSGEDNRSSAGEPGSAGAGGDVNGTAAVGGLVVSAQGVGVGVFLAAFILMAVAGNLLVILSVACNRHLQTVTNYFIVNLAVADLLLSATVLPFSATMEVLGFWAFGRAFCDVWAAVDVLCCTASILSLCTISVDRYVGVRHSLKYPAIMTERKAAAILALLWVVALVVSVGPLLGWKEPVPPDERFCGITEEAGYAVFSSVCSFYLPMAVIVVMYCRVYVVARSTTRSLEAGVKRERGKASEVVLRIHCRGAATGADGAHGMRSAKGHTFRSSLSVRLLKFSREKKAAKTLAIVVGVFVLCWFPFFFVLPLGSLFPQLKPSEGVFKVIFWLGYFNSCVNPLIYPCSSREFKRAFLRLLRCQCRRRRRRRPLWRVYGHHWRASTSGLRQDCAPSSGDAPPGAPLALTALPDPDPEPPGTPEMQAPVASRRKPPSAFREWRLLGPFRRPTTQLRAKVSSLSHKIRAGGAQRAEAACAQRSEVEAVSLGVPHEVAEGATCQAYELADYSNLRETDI
Procedure: Compounds of invention were incubated with 0.6 nM [^3H]Prozosin for 60 min. at 25° C. Non-specific binding was estimated in the presence of 10 μM phentolamine. Receptor proteins were filtered and washed, the filters were then counted to determine [^3H]Prozosin specifically bound. Compounds were screened at 1 μM or lower, using 1% DMSO as vehicle. Biochemical assay results are presented as the percent inhibition of specific binding in Table 9.

[2] = molecular target: T2, human recombinant adrenergic α2B receptor (Homo sapiens, UniProt P18089); assay: Adrenergic α2B radioligand binding ([3H]Rauwolscine); conditions: for inhibition at 1 µM: read-out: Inhibition of ligand binding, Adrenergic α2B
T2 construct: expressed in transfected cells; host or cells: Chinese hamster ovary (CHO-K1) cells
T2 sequence (P18089 1-450): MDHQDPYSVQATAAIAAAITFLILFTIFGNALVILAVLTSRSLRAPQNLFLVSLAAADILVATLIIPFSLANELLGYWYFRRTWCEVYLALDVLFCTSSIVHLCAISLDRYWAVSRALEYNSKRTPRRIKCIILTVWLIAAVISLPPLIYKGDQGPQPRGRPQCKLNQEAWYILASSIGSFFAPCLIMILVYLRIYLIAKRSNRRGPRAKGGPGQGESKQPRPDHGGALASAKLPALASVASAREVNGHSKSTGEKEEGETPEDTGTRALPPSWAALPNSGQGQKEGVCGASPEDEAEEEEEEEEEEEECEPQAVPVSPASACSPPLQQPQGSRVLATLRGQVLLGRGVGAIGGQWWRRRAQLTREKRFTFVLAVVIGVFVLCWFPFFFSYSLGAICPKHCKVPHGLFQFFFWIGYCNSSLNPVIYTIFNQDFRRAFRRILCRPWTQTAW
Procedure: To evaluate in radioligand binding assays the activity of compounds of the invention, human recombinant adrenergic α2B receptor expressed in Chinese hamster ovary (CHO-K1) cells (Uhlen S et al. Eur J Pharmacol. 343(1):93, 1998) in a modified Tris-HCl buffer (50 mM Tris-HCl, pH 7.4, 12.5 mM MgCl2, 1 mM EDTA, 0.2% BSA) was used. Compounds of the invention were incubated with 2.5 nM [^3H]Rauwolscine for 60 min. at 25° C. Non-specific binding was estimated in the presence of 10 μM Prozosin. Receptor proteins were filtered and washed, the filters were then counted to determine [^3H]Rauwolscine specifically bound. Compounds were screened at 1 μM or lower, using 1% DMSO as vehicle. Biochemical assay results are presented as the percent inhibition of specific binding in Table 9.

[3] = molecular target: human dopamine D2L receptor (Homo sapiens, UniProt P14416); assay: Dopamine D2L radioligand binding ([3H]Spiperone); conditions: read-out: Inhibition of ligand binding, Dopamine D2L
Description: Non-specific binding was estimated in the presence of […] Haloperidol. Receptor proteins were filtered and washed, the filters were then counted to determine [^3H]Spiperone specifically bound. […] Biochemical assay results are presented as the percent inhibition of specific binding in Table 9.

[4] = molecular target: T3, human recombinant serotonin (5-Hydroxytryptamine) 5-HT2A receptor (Homo sapiens, UniProt P28223); assay: Serotonin 5-HT2A radioligand binding ([3H]Ketanserin); conditions: read-out: Inhibition of ligand binding, Serotonin 5-HT2A (percent inhibition of specific binding), compound at 1 μM
T3 construct: expressed in transfected cells; host or cells: Chinese hamster ovary (CHO-K1) cells
Procedure: Compounds of the invention were incubated with 0.5 nM [^3H]Ketanserin for 60 min. at 25° C. Non-specific binding was estimated in the presence of 1 μM Mianserin. Receptor proteins were filtered and washed, the filters were then counted to determine [^3H]Ketanserin specifically bound.

[5] = molecular target: T4, human recombinant serotonin (5-Hydroxytryptamine) 5-HT6 receptor (Homo sapiens, UniProt P50406); assay: Serotonin 5-HT6 radioligand binding ([3H]LSD); conditions: read-out: Inhibition of ligand binding, Serotonin 5-HT6 (percent inhibition of specific binding); for inhibition at 1 µM: compound at 1 μM
T4 construct: expressed in transfected cells; host or cells: human HeLa cells
Procedure: Compounds of the invention were incubated with 1.5 nM [3H]Lysergic acid diethylamide (LSD) for 120 min. at 37° C. […] Receptor proteins were filtered and washed, the filters were then counted to determine [3H]LSD specifically bound. Compounds were screened at 1 μM or lower, using 1% DMSO as vehicle. Biochemical assay results are presented as the percent inhibition of specific binding in Table 10.

[6] = molecular target: human recombinant serotonin (5-Hydroxytryptamine) 5-HT7 receptor (Homo sapiens, UniProt P34969); assay: Serotonin 5-HT7 radioligand binding ([3H]LSD); conditions: compound at 1 μM; read-out: Inhibition of ligand binding, Serotonin 5-HT7 (percent inhibition of specific binding)
Description: Receptor proteins were filtered and washed, the filters were then counted to determine [^3H]LSD specifically bound.

[7] = molecular target: T5, human recombinant histamine H2 receptor (Homo sapiens, UniProt P25021); assay: Histamine H2 radioligand binding ([125I]Aminopotentidine)
T5 construct: expressed in transfected cells; host or cells: Chinese hamster ovary (CHO) K1 cells
Procedure, shortened: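 CHO-K1 cells expressing human recombinant H2 receptor, 50 mM phosphate buffer pH 7.4; compounds incubated with 0.1 nM [125I]aminopotentidine for 120 min at 25 °C. Nonspecific binding defined with 3 μM tiotidine; specifically bound radioligand counted after filtration and washing.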

[8] = percent inhibition of specific binding, compound at 1 μM
[9] = read-out: Histamine Binding (1 μM) H2, percent inhibition of specific binding, 1 μM

Chain of human dopamine D2L receptor (P14416 whole entry): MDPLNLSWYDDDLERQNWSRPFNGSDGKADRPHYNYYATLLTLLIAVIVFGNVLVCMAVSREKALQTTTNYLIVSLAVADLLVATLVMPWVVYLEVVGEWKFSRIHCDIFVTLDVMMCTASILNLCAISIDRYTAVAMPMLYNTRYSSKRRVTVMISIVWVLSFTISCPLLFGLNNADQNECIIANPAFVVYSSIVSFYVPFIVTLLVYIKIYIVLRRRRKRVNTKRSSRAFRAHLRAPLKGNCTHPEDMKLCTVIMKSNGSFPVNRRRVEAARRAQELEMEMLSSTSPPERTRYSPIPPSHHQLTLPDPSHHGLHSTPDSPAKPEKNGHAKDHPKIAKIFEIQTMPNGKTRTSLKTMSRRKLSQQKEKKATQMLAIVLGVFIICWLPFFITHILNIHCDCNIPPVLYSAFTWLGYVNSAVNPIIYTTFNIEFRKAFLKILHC
T5 sequence (P25021 whole entry): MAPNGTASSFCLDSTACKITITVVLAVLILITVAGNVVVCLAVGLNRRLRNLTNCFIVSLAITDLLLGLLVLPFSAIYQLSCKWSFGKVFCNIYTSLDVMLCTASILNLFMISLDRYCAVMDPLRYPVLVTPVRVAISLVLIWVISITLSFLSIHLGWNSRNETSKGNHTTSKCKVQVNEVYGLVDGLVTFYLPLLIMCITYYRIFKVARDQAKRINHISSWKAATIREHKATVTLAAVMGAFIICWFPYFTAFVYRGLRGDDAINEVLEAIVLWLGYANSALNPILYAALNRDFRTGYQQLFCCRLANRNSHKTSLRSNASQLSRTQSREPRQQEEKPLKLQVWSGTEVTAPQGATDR
T3 sequence (P28223 whole entry): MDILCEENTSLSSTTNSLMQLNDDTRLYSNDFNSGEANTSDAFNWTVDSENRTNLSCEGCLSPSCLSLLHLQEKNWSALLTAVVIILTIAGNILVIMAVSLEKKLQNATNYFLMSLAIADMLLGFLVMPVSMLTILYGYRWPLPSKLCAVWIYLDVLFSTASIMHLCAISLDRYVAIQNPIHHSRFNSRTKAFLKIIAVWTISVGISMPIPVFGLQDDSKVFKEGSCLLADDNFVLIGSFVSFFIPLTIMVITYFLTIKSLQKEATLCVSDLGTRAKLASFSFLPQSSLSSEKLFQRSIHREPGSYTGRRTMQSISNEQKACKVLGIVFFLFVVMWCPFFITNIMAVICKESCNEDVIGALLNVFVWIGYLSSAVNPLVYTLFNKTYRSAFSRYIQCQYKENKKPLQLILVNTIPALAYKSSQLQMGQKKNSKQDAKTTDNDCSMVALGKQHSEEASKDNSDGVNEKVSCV
T4 sequence (P50406 whole entry): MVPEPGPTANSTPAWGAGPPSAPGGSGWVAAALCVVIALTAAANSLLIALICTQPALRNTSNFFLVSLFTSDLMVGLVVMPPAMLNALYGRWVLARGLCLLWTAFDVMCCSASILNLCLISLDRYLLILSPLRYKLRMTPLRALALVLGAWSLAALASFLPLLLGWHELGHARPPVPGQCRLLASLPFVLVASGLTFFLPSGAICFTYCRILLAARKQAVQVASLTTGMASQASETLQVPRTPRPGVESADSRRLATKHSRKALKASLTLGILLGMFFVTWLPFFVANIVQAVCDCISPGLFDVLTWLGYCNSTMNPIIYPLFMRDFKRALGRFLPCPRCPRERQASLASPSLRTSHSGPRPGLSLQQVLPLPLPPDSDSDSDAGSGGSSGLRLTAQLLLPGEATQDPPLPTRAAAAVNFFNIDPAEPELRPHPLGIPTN
Chain of human recombinant serotonin (5-Hydroxytryptamine) 5-HT7 receptor (P34969 whole entry): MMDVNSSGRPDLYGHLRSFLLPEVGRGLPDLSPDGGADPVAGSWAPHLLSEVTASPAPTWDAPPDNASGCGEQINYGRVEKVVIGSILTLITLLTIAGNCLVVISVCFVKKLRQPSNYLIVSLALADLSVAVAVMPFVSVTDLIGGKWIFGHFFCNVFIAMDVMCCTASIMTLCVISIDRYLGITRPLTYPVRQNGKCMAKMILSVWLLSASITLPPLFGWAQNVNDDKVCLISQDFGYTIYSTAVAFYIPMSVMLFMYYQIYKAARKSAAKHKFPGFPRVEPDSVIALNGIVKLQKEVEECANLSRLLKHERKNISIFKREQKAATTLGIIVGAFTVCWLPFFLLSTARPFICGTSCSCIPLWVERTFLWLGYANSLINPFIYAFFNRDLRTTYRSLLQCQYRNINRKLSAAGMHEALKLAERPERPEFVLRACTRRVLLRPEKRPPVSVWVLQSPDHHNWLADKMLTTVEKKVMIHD

SMILES	inhibition at 1 µM [1, 8] [%]	Inhibition of ligand binding, Adrenergic α2B ([2]; percent inhibition of specific binding, compound at 1 μM, 1 µM) [%]	inhibition at 1 µM [2, 8] [%]	inhibition at 1 µM [3, 8] [%]	inhibition at 1 µM [4] [%]	inhibition at 0.1 µM ([5]; compound at 0.1 μM) [%]	inhibition at 1 µM [5] [%]	inhibition at 1 µM [6] [%]	inhibition at 1 µM ([7]; read-out: Histamine Binding (1 μM) H2, percent inhibition of specific binding) [%]	inhibition at 1 µM [1] [%]	inhibition at 1 µM [2] [%]	inhibition at 1 µM [3] [%]	inhibition at 1 µM [7, 9] [%]
Cc1ccc(C(O)Cn2c3c(c4cc(C)ccc42)CN(C)CC3)cc1 (racemic) [Compound 43, racemic-2-(1,2,3,4-tetrahydro-2,8-dimethylpyrido[4,3-b]indol-5-yl)-1-p-tolylethanol]	87	102	108	65	100	62	95	98	–	–	–	–	–
Cc1ccc2[nH]c3c(c2c1)CN(C)CC3 [Compound 3, 2,8-Dimethyl-2,3,4,5-tetrahydro-1H-pyrido[4,3-b]indole]	–	–	–	–	–	–	58	–	6	42	91	14	–
Cc1ccc(C(C)(O)Cn2c3c(c4cc(Cl)ccc42)CN(C)CC3)cn1 (stereo not drawn) [Compound 47, 1-(8-chloro-1,2,3,4-tetrahydro-2-methylpyrido[4,3-b]indol-5-yl)-2-(6-methylpyridin-3-yl)propan-2-ol]	82	–	106	7	84	–	39	–	–	–	–	–	48
Cc1ccc2c(c1)c1c(n2CC(O)c2ccc(C)nc2)CCN(C)C1 (stereo not drawn) [Compound 48, 2-(2,8-dimethyl-3,4-dihydro-1H-pyrido[4,3-b]indol-5(2H)-yl)-1-(6-methylpyridin-3-yl)ethanol]	45	–	100	8	73	–	59	–	–	–	–	–	47
Cc1ccc2c(c1)c1c(n2CC(C)(O)c2ccc(C)nc2)CCN(C)C1 (stereo not drawn) [Compound 52, 1-(1,2,3,4-tetrahydro-2,8-dimethylpyrido[4,3-b]indol-5-yl)-2-(6-methylpyridin-3-yl)propan-2-ol]	39	–	104	12	83	–	37	–	–	–	–	–	51
Cc1ccc2c(c1)c1c(n2CC(O)c2cccnc2)CCN(C)C1 (stereo not drawn) [Compound 54, 2-(1,2,3,4-tetrahydro-2,8-dimethylpyrido[4,3-b]indol-5-yl)-1-(pyridin-3-yl)ethanol]	15	–	103	-4	42	–	31	–	–	–	–	–	5
Cc1ccc2c(c1)c1c(n2CC(C)(O)c2ccc(F)cc2)CCN(C)C1 (stereo not drawn) [Compound 55, 2-(4-fluorophenyl)-1-(1,2,3,4-tetrahydro-2,8-dimethylpyrido[4,3-b]indol-5-yl)propan-2-ol]	64	–	108	34	100	–	–	–	–	–	–	–	88
CN1CCc2c(c3cc(Cl)ccc3n2CC(O)c2cccnc2)C1 (stereo not drawn) [Compound 56, 2-(8-chloro-1,2,3,4-tetrahydro-2-methylpyrido[4,3-b]indol-5-yl)-1-(pyridin-3-yl)ethanol]	43	–	112	4	68	–	62	–	–	–	–	–	26
COc1ccc(C(C)(O)Cn2c3c(c4cc(Cl)ccc42)CN(C)CC3)cc1 (stereo not drawn) [Compound 57, 1-(8-chloro-1,2,3,4-tetrahydro-2-methylpyrido[4,3-b]indol-5-yl)-2-(4-methoxyphenyl)propan-2-ol]	84	–	108	22	95	–	68	–	–	–	–	–	82
COc1ccc(C(C)(O)Cn2c3c(c4cc(Cl)ccc42)CN(C)CC3)cc1F (stereo not drawn) [Compound 59, 1-(8-chloro-1,2,3,4-tetrahydro-2-methylpyrido[4,3-b]indol-5-yl)-2-(3-fluoro-4-methoxyphenyl)propan-2-ol]	81	–	95	17	96	–	54	–	–	–	–	–	58
Cc1ccc2c(c1)c1c(n2CC(C)(O)c2cccnc2)CCN(C)C1 (stereo not drawn) [Compound 60, 1-(1,2,3,4-tetrahydro-2,8-dimethylpyrido[4,3-b]indol-5-yl)-2-(pyridin-3-yl)propan-2-ol]	33	–	96	6	78	–	50	–	–	–	–	–	40
CN1CCc2c(c3cc(Cl)ccc3n2CC(C)(O)c2cccnc2)C1 (stereo not drawn) [Compound 61, 1-(8-chloro-1,2,3,4-tetrahydro-2-methylpyrido[4,3-b]indol-5-yl)-2-(pyridin-3-yl)propan-2-ol]	87	–	107	19	77	–	65	–	–	–	–	–	41
Cc1ccc2c(c1)c1c(n2CC(C)(O)c2ccncc2)CCN(C)C1 (stereo not drawn) [Compound 62, 1-(1,2,3,4-tetrahydro-2,8-dimethylpyrido[4,3-b]indol-5-yl)-2-(pyridin-4-yl)propan-2-ol]	82	–	103	7	88	–	43	–	–	–	–	–	43
